Measured values from patent publication US9534008B2, “Small molecule compounds that control plant- and insect-pathogenic nematodes” (California Institute of Technology, priority 2011, dated 2017).
Entries after “also recorded” stand apart in the source; their conditions may differ.

How the values were obtained:
[1] = tested on: several of the tested nematode species; assay: Retention assay, across species; type: in vivo; conditions: 1 nM, 1 μM and 1 mM tested
Method: OP50 E. coli was grown on a standard 5 cm agar plate (made with standard Nematode Growth Medium). The bacterial lawn was 16 mm in diameter and was grown overnight at 20° C. before being used in trials. Two 4 mm spots (0.6 μL) were placed on opposite sides of the bacterial lawn (using a transparent template to guide spot placement), and several minutes elapsed for the liquid to settle in before placing nematodes down on the assay. Recording began immediately upon worm placement. 0.6 μL of the control was placed on one side of the lawn, and 0.6 μL of the experimental cue was placed on the other side of the lawn, changing the location of the cue throughout trials between left/right and top/bottom to avoid bias.
Nematodes were isolated by gender at the L4 stage the day before being used in trials as developed adults. Worms were evenly divided and placed at two points equidistant from the foci of the scoring region. Trials were recorded for 20 minutes, and frames were collected for analysis at 1 frame per second. Results were averaged from at least three different trials. For every nematode species in this study, a different total number of worms (using water in both scoring regions) was tested to determine the minimum number of worms necessary for consistent unbiased results over a 20 minute trial. The total number of worms used in the multiple species assays depended on that species' optimal parameters. 10 worms were used for P. redivivus males and females, 20 worms were used for C. elegans males and O. dolichuridae males, and 14 worms were used for S. glaseri males. The Automated Software was used to compare worm occupancy in each scoring region over time, and the Chemotaxis Index (Bargmann et al., Cell 74:515-27 (1993), which is hereby incorporated by reference in its entirety) was adapted to score preference or avoidance to each ascaroside.
A video camera attached to the microscope produced a digital video stream, which was then analyzed. The ratio of the time the average worm spent in each region of interest was calculated for every trial. For ease of implementation, all worms in a single experiment were assumed to be roughly the same size. Thus worm pixels were counted instead of whole worms, allowing fractions of a worm in the region of interest to be taken into account. It also eliminated the need for a shape-based worm identification algorithm, and allowed each frame to be analyzed independently. A band-pass filter was applied to each frame to eliminate the effect of uneven lighting and also accentuate the worms against the background. The worm was then identified after thresholding the filtered image. Throughout each experiment, the locations and sizes of the regions of interest were known. Through the filtering described above, it is known which pixels are occupied by worms and which ones are not. Thus, the ratio of worm-pixels to all pixels inside the region of interest can be calculated to produce the worm-occupancy ratio. This calculation was done for every frame, giving a plot output of worm-occupancy ratio vs. time for each region.

C. elegans [2] = assay: Ascaroside function (Table 12), C. elegans; type: in vivo, Caenorhabditis elegans; parameters: key to Attract Females/Herm. / Promote Dauer Formation / Attract Males: A very strong result of affecting nematode behavior is designated in the table as “strong.”
Method: (§1) Various ascarosides and ascaroside blends were administered to various nematodes described below (Table 12). […] A very strong result of affecting nematode behavior is designated in the table as “strong.”

Panagrellus redivivus = assay: Ascaroside function (Table 12), Panagrellus redivivus; type: in vivo
Method: as §1

S. glaseri = assay: Ascaroside function (Table 12), S. glaseri; type: in vivo
Method: as §1

males = assay: Bioassay of HPLC-purified peak; type: in vivo; conditions: purified peak with retention time of 9.7 minutes
Method: A Thermo Finnigan LCQ Deca XP Max was used with electrospray ionization in positive ion mode in the 50-1000 AMU range. The Thermo Separation spectra HPLC system consisted of a P4000 quaternary pump, an AS 3000 auto sampler, and a UV 6000 diode array detector. The solvents were water with (a) 0.1% formic acid and (b) 90% acetonitrile-10% water with 10 mM ammonium formate. The column temperature was maintained at 60° C. and a solvent flow of 1.0 ml/min. The reversed phase column (PLRP-S Polymeric reversed phase column, 250×4.6 mmid, Varian Inc.) was eluted with a solvent composition starting with 90:10 (a,b) for 2 minutes, followed by a gradient to 5:95 in 20 minutes and an additional 5 minutes at 5:95. Ultraviolet absorption was monitored at 190 and 400 nm. Solvent flow between the ultraviolet detector and mass spectroscopy electrospray interface split 9:1 with a low-volume micro needle P450 splitter valve (Upchurch Scientific, Oak Harbor, Wash.), making it possible to obtain spectra of eluted compounds and simultaneously collect 90% of the injected material for bioassay. […] This was confirmed to be ascr#1 using NMR analysis.

[3] = tested on: C. elegans hermaphrodites and males; assay: Spot attraction assay; type: in vivo
Method: The spot attraction assays were conducted according to a previously reported method (Pungaliya et al., PNAS 106:7708-13 (2009); Srinivasan et al., Nature 454:1115-18 (2008), which are hereby incorporated by reference in their entirety). For both C. elegans hermaphrodites and males, 50-60 worms were harvested daily at the fourth larval stage (L4) and stored segregatedly by sex at 20° C. overnight, to be used as young adults the following day. For the competition experiments, two conditions were used: 120 nM ascr#3 and 10 nM icas#3 (Condition 1), or 12 μM ascr#3 and 1 μM icas#3 (Condition 2) in water containing 10% ethanol. Aliquots were stored at −20° C. in 20 μL tubes. 10% ethanol in water was used as control.
Attraction assays with hbas#3 were conducted as previously reported (Srinivasan et al., Nature 454:1115-18 (2008); Pungaliya et al., Proc. Natl. Acad. Sci. U.S.A. 106:7708-13 (2009), which are hereby incorporated by reference in their entirety). For the attraction assays, 50-60 hermaphrodite worms were harvested daily at the early fourth larval stage (L4) and stored at 20° C. overnight to be used as young adults the following day. Hbas#3 was dissolved in water containing 10% ethanol. Aliquots were stored at −20° C. in 20 μL tubes. 10% ethanol in water was used as control.

[4] = tested on: C. elegans hermaphrodites; assay: Quadrant chemotaxis assay; type: in vivo
Method: Chemotaxis to both non-indole and indole ascarosides was assessed on 10 cm four-quadrant petri plates (Wicks et al., Dev. Biol. 221:295-307 (2000), which is hereby incorporated by reference in its entirety). Each quadrant was separated from adjacent ones by plastic spacers (FIG. 1B). Pairs of opposite quadrants were filled with nematode growth medium (NGM) agar containing either indole ascarosides or non-indole ascarosides at different concentrations. Animals were washed gently in a S-basal buffer, placed in the center of a four-quadrant plate with ascarosides in alternating quadrants, and scored after 15 minutes and 30 minutes. A chemotaxis index was calculated as: (the number of animals on ascaroside quadrants minus the number of animals on buffer quadrants)/(total number of animals).
Chemotaxis to hbas#3 was assessed on 10 cm four-quadrant petri plates (Wicks et al., Dev. Biol. 221:295-307 (2000), which is hereby incorporated by reference in its entirety). Each quadrant was separated from adjacent ones by plastic spacers. Pairs of opposite quadrants were filled with nematode growth medium (NGM) agar containing different concentrations of hbas#3. Animals were washed gently in an S-basal buffer and placed in the center of a four-quadrant plate with ascarosides in alternating quadrants, and scored after 15 minutes and 30 minutes. A chemotaxis index was calculated as: (the number of animals on ascaroside quadrants minus the number of animals on buffer quadrants)/(total number of animals).

C. elegans [5] = assay: Aggregation assay; type: in vivo
Method: Aggregation behavior of worms was measured using assays reported in de Bono & Bargmann, Cell 94:679-89 (1998), which is hereby incorporated by reference in its entirety. Aggregation assays were conducted on standard NGM plates. Plates containing indole ascarosides were made by adding the indole ascaroside stock solution to the NGM media before they were poured onto the plates. These plates were dried at room temperature for 2 to 3 days. Control plates were treated similarly, except that ethanol solutions instead of icas solutions were added to the plates, corresponding to the amount of ethanol introduced via the icas solutions. Final ethanol concentrations of the plates were below 0.1% for all conditions. After drying, both control plates and plates containing indole ascarosides were seeded with 150 μl of an overnight culture of E. coli OP50 using a micropipette, and were allowed to dry for 2 days at room temperature. For “low worm density” experiments, 20 worms were placed onto the lawn and left at 20° C. for 3 hours. For “high worm density” experiments, approximately 120 worms were placed onto the bacterial lawn and left at 20° C. for 3 hours. Aggregation behavior was quantified as the number of animals that were in touch with two or more animals at greater than 50% of their body length.

[6] = tested on: C. elegans hermaphrodites; assay: Measurement of locomotory parameters (automated worm-tracking system); type: in vivo
Method: Reversal frequency and velocity were measured using an automated worm-tracking system (Pungaliya et al., PNAS 106:7708-13 (2009); Srinivasan et al., Nature 454:1115-18 (2008), which are hereby incorporated by reference in their entirety).

ASK neurons = assay: Calcium imaging (G-CaMP), ASK; type: in vivo, C. elegans; conditions: 1 pM to 1 μM
Text: (§2) Transgenic lines that express the genetically encoded Ca^2+ sensor in ASK (kyEx2866) and AIA (kyEx2916) (Macosko et al., Nature 458:1171-75 (2009), which is hereby incorporated by reference in its entirety) were used for calcium imaging. Young adults or adult worms were inserted into an “Olfactory chip” microfluidic device (Chronis et al., Nat. Methods 4:727-31 (2007), which is hereby incorporated by reference in its entirety). Dilutions of icas#3 were done with S-basal buffer (with no cholesterol). As stock solutions of icas#3 contained small amounts of ethanol, equivalent amounts of ethanol were added to the S-basal control flow.
(§3) Imaging was conducted using an inverted Zeiss microscope equipped with an Andor camera. Exposure time for image acquisition was 300 milliseconds. Before imaging the ASK neuron, the worm was exposed to blue light for 3 minutes as ASK responds to the blue light itself. […] Movies were analyzed using custom-made Matlab scripts. The first peak of fluorescence immediately after exposure to buffer or icas#3 was chosen for calculating the average change in fluorescence upon exposure to either buffer or icas#3. The value for this maximum was then subtracted from the mean fluorescence during the 5 seconds before the delivery of icas#3/buffer (corresponding to the region between 5 to 10 seconds in FIG. 2D).

AIA interneurons = assay: Calcium imaging (G-CaMP), AIA; type: in vivo, C. elegans; conditions: 1 μM icas#3
Text: as §2, §3

## C[C@H](CCCCC(=O)O)O[C@@H]1O[C@@H](C)[C@H](O)C[C@H]1O [ascr#1]
[1]
  preference for areas conditioned by ascaroside: preferred
C. elegans [2]
  Attract Males: ascr#1
  Promote Dauer Formation: ascr#1
Panagrellus redivivus
  Attract Males: ascr#1
S. glaseri
  Attract Males: ascr#1
males
  activity to males in the bioassay: active

## C[C@H](CCCC/C=C/C(=O)O)O[C@@H]1O[C@@H](C)[C@H](OC(=O)c2c[nH]c3ccccc23)C[C@H]1O [icas#3]
[3]; N2 (wild-type) and ncs-1::gfp hermaphrodites
  attraction after ablation of the RMG interneuron: does not affect; also recorded: did not affect
[3]; hermaphrodites
  attraction after ablation of ASK sensory neurons: near complete loss of attraction
[3]; high concentrations, 1 μmol, N2 hermaphrodites and him-5 males
  attraction of both C. elegans sexes: attractive; also recorded: attracted
[3]; in vivo
  attraction of AIA-deficient worms: did not show any attraction
  attraction of daf-22 hermaphrodites: attracted; also recorded: as strongly as N2 worms
  attraction of social wild-type (RC301, CB4856) and npr-1(ad609) hermaphrodites: attracted; also recorded: strongly attracted
[3]; low concentrations, N2 hermaphrodites
  attraction of hermaphrodites: strongly attractive
[4]; 1 pM icas#3, after 15 minutes
  chemotaxis of hermaphrodites from all tested strains: attracted
[4]; 1 μM icas#3, after 30 minutes
  chemotaxis of hermaphrodites from all tested strains: attracted
[4]; in vivo
  attraction of social wild-type (RC301, CB4856) and npr-1(ad609) hermaphrodites: strongly attracted
  response of daf-22 hermaphrodites: as strongly as N2 worms
[4]; presence and absence of food
  concentration resulting in strong attraction of hermaphrodites (as low as): ≤ 1 pM
C. elegans [5]; 1 pM icas#3, low worm density
  aggregation of daf-22 hermaphrodites versus N2: less aggregation than N2 worms
C. elegans [5]; 1 nM icas#3, low worm density
  aggregation of CB4856: not significantly different from the control
C. elegans [5]; entire tested concentration range, without drop off, low worm density
  aggregation of npr-1(ad609) hermaphrodites: increased aggregation
C. elegans [5]; in vivo
  active concentration window (hermaphrodite attraction and aggregation): fM-pM; also recorded: femtomolar to low picomolar
C. elegans [5]; low worm density (20 worms per plate), solitary and social hermaphrodites
  concentration giving very strong increase in aggregation (as low as): ≤ 10 fM
C. elegans [5]; low worm density, any of the tested concentrations
  aggregation of ASK-ablated hermaphrodites: do not aggregate; also recorded: did not aggregate
C. elegans [5]; low worm density, bell-shaped response curve
  concentration of maximal aggregation, social strain CB4856: 1 pM
C. elegans [5]; plates containing 100 fM or 100 pM of icas#3
  aggregation of him-5 males: significantly increased
[6]; 1-10 pM icas#3
  worm velocity: not significantly reduced
[6]; aggregation-inducing concentrations, N2 hermaphrodites
  mean stopped duration: strongly increase
[6]; in vivo
  forward velocity of ASK-ablated hermaphrodites: do not display reduced forward velocity
  reversal frequency of ASK-ablated hermaphrodites: does not increase; also recorded: neither increased reversal frequency
ASK neurons
  Ca2+ transients in ASK neurons: no detection
AIA interneurons
  G-CaMP fluorescence in AIA interneurons: induces G-CaMP fluorescence signals; also recorded: significantly increased; also recorded: significant changes
C. elegans [2]
  Attract Females/Herm.: ([strong])
  Attract Males: ([strong])
